According to patent publication US10414741B2, “Amorphous vortioxetine and salts thereof” (CADILA HEALTHCARE LIMITED, priority 2013, dated 2019):

Assay: stability of amorphous form under normal stability conditions
Type: physicochemical
Description: Therefore, there is no physical change observed from amorphous form to crystalline form during the stability.
In further aspect, the stable amorphous vortioxetine free base or vortioxetine hydrobromide can be stored under nitrogen atmosphere and packed in a double polythene bag tied with a thread, keeping primary packing containing amorphous vortioxetine or vortioxetine hydrobromide inside a black color polyethylene bag containing oxygen busters and sealing it, placing above the double polyethylene bag inside a triple laminated bag optionally containing oxygen busters and sealing it, and placing the sealed triple laminated bag inside a closed high density polyethylene (HDPE) container and storing in controlled environment chamber at 25° C. and/or 40° C.

Cc1ccc(Sc2ccccc2N2CCNCC2)c(C)c1 [amorphous vortioxetine free base, 1-{2-[(2,4-dimethylphenyl)sulfanyl]phenyl}piperazine]
stability of amorphous form (physical change from amorphous form to crystalline form): stable under normal stability conditions
